Results reported in patent US20030195212A1, “Novel melanocortin receptor agonists and antagonists” (priority 2000, published 2003).

Assays:
MC1 receptor [1] = molecular target: T1, MC1 receptor (Mus musculus, UniProt Q01727); assay: Affinity for the MC1-receptor, displacement of I125-NDP-MSH; assay type: binding; conditions: B16 mouse melanoma cells, I125-NDP-MSH ligand; read-out: Affinity for MC-receptors Ki MC1
T1 construct: B16 mouse melanoma cells were used, which endogenously express the (mouse) MC1 receptor; endogenous in cells; host or cells: B16 mouse melanoma cells
T1 sequence (Q01727 whole entry): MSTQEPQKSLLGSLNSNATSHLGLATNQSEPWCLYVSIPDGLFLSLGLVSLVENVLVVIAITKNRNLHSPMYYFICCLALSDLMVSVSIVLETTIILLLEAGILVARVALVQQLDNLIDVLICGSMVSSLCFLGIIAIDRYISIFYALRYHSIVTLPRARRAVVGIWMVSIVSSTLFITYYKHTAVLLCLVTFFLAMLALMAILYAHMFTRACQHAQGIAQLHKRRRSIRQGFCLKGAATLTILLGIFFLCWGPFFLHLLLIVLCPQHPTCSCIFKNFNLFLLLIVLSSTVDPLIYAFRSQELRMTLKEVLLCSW
Protocol: Test 1. Affinity for the MC1-Receptor
The binding assay was carried out essentially as described by Lunec et al Melanoma Res 1992; 2; 5-12 using I^125α-NDP-MSH as ligand.
(§1) Essentially, the affinity of the compounds to the different receptors were determined using either insect cells (Sf9) or COS cells, which were transfected with recombinant human MC3, MC4 or MC5 receptors. For the determination of the affinity to the MC1 receptor, B16 mouse melanoma cells were used, which endogenously express the (mouse) MC1 receptor.
(§2) The compounds were tested at different concentrations for their ability to displace I^125-labelled NDP-MSH from the respective receptor. Incubation was performed in 96-well plates using 50,000 cells/well (Sf9 or COS cells) up to 200,000 cells/well (mouse melanoma cells).
(§3) The test compound or standard (NDP-MSH) was added in an appropriate concentration (generally between 10^−4 M and 10^−12 M) together with labelled tracer (approx. 50,000 cpm/well) and incubation was performed for 2 hours (at room temperature for Sf 9 cells and at +37° C. for COS cells and mouse melanoma cells).
(§4) After the incubation, the cells were washed twice to get rid of excess tracer and compound, and the cells were lysed with 0.1M NaOH. The lysate was counted in a gamma-counter, binding was calculated and the affinity then determined.

human MC3 receptor [2] = molecular target: T2, human MC3 receptor (Homo sapiens, UniProt P41968); assay: Affinity for the MC3-receptor, displacement of I125-NDP-MSH; assay type: binding; conditions: Sf9 or COS cells transfected with human MC3, I125-NDP-MSH ligand; for Ki: read-out: Affinity for MC-receptors Ki MC3
T2 construct: expressed in transfected cells; host or cells: Sf9 insect cells or COS cells
T2 sequence (P41968 whole entry): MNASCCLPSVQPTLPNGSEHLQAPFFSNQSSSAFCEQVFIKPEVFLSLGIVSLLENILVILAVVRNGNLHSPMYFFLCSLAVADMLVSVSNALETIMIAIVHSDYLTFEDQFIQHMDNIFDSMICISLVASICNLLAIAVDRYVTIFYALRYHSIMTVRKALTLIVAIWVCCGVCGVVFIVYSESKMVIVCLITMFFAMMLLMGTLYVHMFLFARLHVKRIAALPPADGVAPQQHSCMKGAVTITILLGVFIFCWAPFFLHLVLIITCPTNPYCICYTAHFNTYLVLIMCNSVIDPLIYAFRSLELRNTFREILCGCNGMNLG
Protocol: (§5) Test 2. Affinity for the MC3-Receptors, the MC4-Receptors and the MC5-Receptors
(§6) The binding assays were carried out essentially as described by Szardenings et al., J. Biol. Chem. 1997; 272; 27943-27948 and Schiöth et al., FEBS Lett. 1997; 410; 223-228 using I^125-NDP-α-MSH as ligand.
as §1, §2, §3, §4

human MC4 receptor [3] = molecular target: T3, human MC4 receptor (Homo sapiens, UniProt P32245); assay: Affinity for the MC4-receptor, displacement of I125-NDP-MSH; assay type: binding; conditions: Sf9 or COS cells transfected with human MC4, I125-NDP-MSH ligand; read-out: Affinity for MC-receptors Ki MC4
T3 construct: expressed in transfected cells; host or cells: Sf9 insect cells or COS cells
T3 sequence (P32245 whole entry): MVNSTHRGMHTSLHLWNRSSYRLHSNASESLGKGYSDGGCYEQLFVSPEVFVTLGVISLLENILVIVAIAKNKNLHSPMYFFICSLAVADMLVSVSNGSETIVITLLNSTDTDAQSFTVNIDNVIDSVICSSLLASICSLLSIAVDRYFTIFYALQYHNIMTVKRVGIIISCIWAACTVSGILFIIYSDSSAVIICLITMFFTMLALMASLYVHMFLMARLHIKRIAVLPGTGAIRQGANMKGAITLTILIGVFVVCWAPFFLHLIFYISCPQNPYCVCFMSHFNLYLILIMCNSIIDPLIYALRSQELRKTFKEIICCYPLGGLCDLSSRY
Protocol: as §5, §6, §1, §2, §3, §4

human MC5 receptor [4] = molecular target: T4, human MC5 receptor (Homo sapiens, UniProt P33032); assay: Affinity for the MC5-receptor, displacement of I125-NDP-MSH; assay type: binding; conditions: Sf9 or COS cells transfected with human MC5, I125-NDP-MSH ligand; read-out: Affinity for MC-receptors Ki MC5
T4 construct: expressed in transfected cells; host or cells: Sf9 insect cells or COS cells
T4 sequence (P33032 whole entry): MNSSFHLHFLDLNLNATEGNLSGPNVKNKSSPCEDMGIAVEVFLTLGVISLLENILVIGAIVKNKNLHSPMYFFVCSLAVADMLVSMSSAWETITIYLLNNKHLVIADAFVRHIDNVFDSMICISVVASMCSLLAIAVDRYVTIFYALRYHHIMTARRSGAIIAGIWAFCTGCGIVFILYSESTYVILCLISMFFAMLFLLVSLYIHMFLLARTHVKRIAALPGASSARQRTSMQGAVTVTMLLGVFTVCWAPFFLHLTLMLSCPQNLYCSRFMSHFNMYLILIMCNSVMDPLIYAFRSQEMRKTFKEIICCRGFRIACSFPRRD
Protocol: as §5, §6, §1, §2, §3, §4

MC1 receptor [5] = molecular target: T1, MC1 receptor; assay: cAMP assay, MC1 receptor (mouse melanoma B16 cells); assay type: cell-based; conditions: 20 minutes at +37° C.
Protocol: (§7) Test 3. cAMP Assay p The stimulation of cAMP was carried out essentially as described by Schiöth et al., Br. J. Pharmacol. 1998; 124; 75-82.
(§8) Essentially, the effects of the compounds were tested […] for their ability to stimulate the production of cAMP. The cells used were the same ones that were used for the binding assays (see above), i.e. for the MC1 receptor mouse melanoma B16 cells were used and for the MC3, MC4 and MC5 receptors, Sf9 or COS cells, transfected with the respective human receptors.
(§9) Cyclic AMP was stimulated by the addition of the compounds at different concentrations in the presence of a phosphodiesterase inhibitor, during a period of 20 minutes at +37° C. cAMP was extracted with PCA, neutralised with KOH and the mixture was then centrifuged.
(§10) The concentration of cAMP was determined using a binding assay comprising binding protein (from bovine adrenals). Tritiated cAMP, used as tracer, and extracts (from above) in different dilutions were incubated at +4° C. for 120-150 minutes. The cAMP in the unknown samples displaced the labelled cAMP from binding to the binding protein. The binding protein-cAMP/tracer complex was harvested using a filter technique and the filters were counted using a beta-counter. The concentrations of cAMP in the unknown extracts were calculated using a standard curve of known concentrations.

human MC4 receptor [6] = molecular target: T3, human MC4 receptor; assay: cAMP assay, MC4 receptor (transfected Sf9 or COS cells); assay type: cell-based; conditions: 20 minutes at +37° C.
Protocol: as §7, §8, §9, §10

human MC5 receptor [7] = molecular target: T4, human MC5 receptor; assay: cAMP assay, MC5 receptor (transfected Sf9 or COS cells); assay type: cell-based; conditions: 20 minutes at +37° C.
Protocol: as §7, §8, §9, §10

human MC3 receptor [8] = molecular target: T2, human MC3 receptor; assay: cAMP assay, MC3 receptor (transfected Sf9 or COS cells); assay type: cell-based; conditions: 20 minutes at +37° C.
Protocol: as §7, §8, §9, §10

Female BALB/c mice = assay: Anti-inflammatory effects: total number of white blood cells in DNFB model; assay type: in vivo, mouse; conditions: i.p., 0.05-0.75 mg/kg, blood collected 24 hours after last challenge
Protocol: Anti-Inflammatory Effects
Female BALB/c mice (weight 20-22 g) were sensitized by treatment of the shaved abdomen with 30 μl of 0.5% 2,4-dinitrofluorobenzene (DNFB). After 4 days they were challenged with 10 μl of 0.3% DNFB to the paw. The unchallenged mice paws served as a control. Twenty-four hours after the last challenge, the difference in paws weight were determined as an indicator of the inflammation (paw oedema).
Mice were treated as the control but were additionally injected i.p. with various doses (0.05, 0.15 or 0.25, 0.375, 0.5 and 0.75 mg/kg) of each compounds two hours before sensitization (day 0) and the same dose was administered repeatedly after sensitization during four consecutive days. The paw edema inhibition as described above. Groups containing at least 10 mice each were used for all experiments.
Blood analysis was carried out using the QBC® Autoread™ Plus & QBC® Accutube System (Becton Dickinson). In all cases blood samples were collected twenty-four hours after the last challenge.

[9] = system: Sprague-Dawley, male rats; assay: In vivo effects on food intake, nocturnal protocol, icv; design: species or system rat
From the text: (§11) In Vivo Effects on Food Intake
(§12) Compounds have been tested for their effects on food intake and body weight in rats.
(§13) In order to investigate the agonistic effect, i.e. decrease in food intake, of compounds, the nocturnal protocol was used. Sprague-Dawley, male rats were used, which were cannulated intracerebroventricularly. Stainless steel guide cannulae were placed in the lateral ventricle and fixed in the skull. Animals were acclimatized for a week before the experiments took place. After the experiments were done, the rats were killed and placement of the cannulae were checked.
(§14) Rats were cannulated as described above. They were used without prior starvation, and compounds were administered at 5 pm in a total volume of 5 μl. Doses of Compound 2:4 used were 1, 4 and 10 nmoles. Food intake was measured at 3, 15 and 24 hours after dosing, and body weight was recorded at 24 hours. For comparison, the well known MC4 receptor agonist, Melanotan II (MTII) was used, at a dose of 1 nmole.

[10] = system: Sprague-Dawley, male rats; assay: In vivo effects on body weight gain, nocturnal protocol, icv; design: species or system rat; conditions: icv, 1, 4 and 10 nmoles, recorded at 24 hours
From the text: as §11, §12, §13, §14

| Ki (MC1 receptor [1]) | Ki (human MC3 receptor [2]) | Ki (human MC4 receptor [3]) | Ki (human MC5 receptor [4]) | Influence on cAMP MC1c (MC1 receptor [5]) | Influence on cAMP MC4c (human MC4 receptor [6]) | Influence on cAMP MC5c (human MC5 receptor [7]) | Affinity for MC-receptors Ki MC3 (human MC3 receptor [2]) | Influence on cAMP MC3c (human MC3 receptor [8]) | SMILES | white blood cell count (Female BALB/c mice) | effects at the highest dose compared with MTII ([9]; icv, 10 nmoles versus MTII 1 nmole, food intake and body weight gain) | food intake ([9]; icv, 1, 4 and 10 nmoles, measured at 3, 15 and 24 hours after dosing) | body weight gain [10] |
| --- | --- | --- | --- | --- | --- | --- | --- | --- | --- | --- | --- | --- | --- |
| 12.7 µM | 37.1 µM | 25.2 µM | 30.8 µM | 375 percentage of the baseline | 99 percentage of the baseline | 76 percentage of the baseline |  |  | NCCCNC(=O)C(Cc1c[nH]c2ccccc12)NC(=O)Cc1cccc2ccccc12 (centres unmarked) [1:6, N-(3-Amino-propyl)-3-(1H-indol-3-yl)-2-(2-naphthalen-1-yl-acetylamino)-propionamide] |  |  |  |  |
| 2.7 µM |  | 20.8 µM | 17.9 µM | 354 percentage of the baseline | 61 percentage of the baseline | 117 percentage of the baseline | nb |  | CCn1c2ccccc2c2cc(NC(=O)C(Cc3c[nH]c4ccccc34)NC(=O)CCCNC(=N)N)ccc21 (centres unmarked) [2:6, N-[1-(9-Ethyl-9H-carbazol-3-ylcarbamoyl)-2-(1H-indol-3-yl)-ethyl]-4-guanidino-butyramide] |  |  |  |  |
|  |  |  |  | 162 percentage of the baseline | 237 percentage of the baseline | 164 percentage of the baseline |  | 116 percentage of the baseline | CCn1c2ccccc2c2cc(NC(=O)C(Cc3c[nH]c4ccccc34)NC(=O)CCN)ccc21 (centres unmarked) [2:14, 2-(3-Amino-propionylamino)-N-(9-ethyl-9H-carbazol-3-yl)-3-(1H-indol-3-yl)-propionamide] |  |  |  |  |
| 1.3 µM | 23.5 µM | 5.6 µM | 35.6 µM |  |  |  |  |  | N=C(N)NCCCCN(Cc1ccccc1)C(=O)C(Cc1c[nH]c2ccccc12)NC(=O)CCCc1ccccc1 (centres unmarked) [Compound 1:15, N-[1-[Benzyl-(4-guanidino-butyl)-carbamoyl]-2-(1H-indol-3-yl)-ethyl]-4-phenyl-butyramide] | clearly dose dependent |  |  |  |
| 0.6 µM | 35.3 µM | 3.1 µM | 43.7 µM |  |  |  |  |  | N=C(N)NCCCCN(Cc1ccccc1)C(=O)C(Cc1c[nH]c2ccccc12)NC(=O)Cc1ccc2ccccc2c1 (centres unmarked) [Compound 1:17, N-Benzyl-N-(4-guanidino-butyl)-3-(1H-indol-3-yl)-2-(2-naphthalen-2-yl-acetylamino)-propionamide] | clearly dose dependent |  |  |  |
|  |  |  |  |  |  |  |  |  | N=C(N)NCCCC(=O)NC(Cc1c[nH]c2ccccc12)C(=O)NCCc1c[nH]c2ccccc12 (centres unmarked) [Compound 2:4, 4-Guanidino-N-{2-(1H-indol-3-yl)-1-[2-(1H-indol-3-yl)-ethylcarbamoyl]-ethyl}-butyramide] |  | in the same range as that observed with MTII | the intermediate and the highest dose is significantly different from vehicle treated animals | dose dependent and significantly different from vehicle treated animals at the highest dose tested |
| 2.6 µM |  | 18.1 µM | 25.1 µM | 315 percentage of the baseline | 79 percentage of the baseline | 154 percentage of the baseline | nb |  | CCn1c2ccccc2c2cc(NC(=O)C(Cc3c[nH]c4ccccc34)NC(=O)CCCN)ccc21 (centres unmarked) [Compound 2:7, 4-Amino-N-[1-(9-ethyl-9H-carbazol-3-ylcarbamoyl)-2-(1H-indol-3-yI)-ethyl]-butyramide] |  |  |  |  |
